Measured values published in ChEMBL document CHEMBL1201862, “PubChem BioAssay data set” (2004).
Where “and” joins values, the source holds several entries; their conditions need not be identical. Identical values can stand only once.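 Results reflect a 48-hour exposure of cells in 96-well plates to compound at five concentrations. The concentration for 50% growth inhibition is given as GI50.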 Calls of active or inactive are those of the source. No stated cut-off is given here; in the data, active = GI50 up to about 1.1 µM and inactive = higher. Non-standard residues stand in square brackets, D forms with d. Residues, ends and D or L forms follow the SMILES beside them. *: point of attachment. Bn2Val = CC(C)[C@@H](C(=O)*)N(Cc1ccccc1)Cc1ccccc1; NMeV = CN[C@H](C(=O)O)C(C)C; X32 = COc1ccc(CN*)c(OC)c1; dNMeA = CN[C@H](C)C(=O)O

Assays:
Test in all cases: NCI tumour cell line growth inhibition, 48 h
SK-OV-3 = test system: SK-OV-3
SF-268 = test system: SF-268
SK-MEL-28 = test system: SK-MEL-28
IGROV-1 = test system: IGROV-1
OVCAR-8 = test system: OVCAR-8
HOP-62 = test system: HOP-62
UO-31 = test system: UO-31
EKVX = test system: EKVX
HCT-15 = test system: HCT-15
SN12C = test system: SN12C
MOLT-4 = test system: MOLT-4
HCT-116 = test system: HCT-116
Malme-3M = test system: Malme-3M
K562 = test system: K562
OVCAR-3 = test system: OVCAR-3
SR = test system: SR
BT-549 = test system: BT-549
HOP-92 = test system: HOP-92
CAKI-1 = test system: CAKI-1

Measured: GI50

CC#CC(O)(C(=O)OCCCN(C)C)C1CCCCC1 (centres undefined)
> 100 µM: HCT-15
inactive: SK-OV-3 > 100 µM | SF-268 > 100 µM | SK-MEL-28 > 100 µM | IGROV-1 > 100 µM | OVCAR-8 > 100 µM | HOP-62 > 100 µM | UO-31 > 100 µM | EKVX > 100 µM | SN12C > 100 µM | MOLT-4 > 100 µM | HCT-116 > 100 µM | Malme-3M > 100 µM | K562 > 100 µM | OVCAR-3 > 100 µM | SR > 100 µM | BT-549 > 100 µM | HOP-92 > 100 µM

COC(=O)c1ccc(Oc2nc3ccc(C(F)(F)F)cc3nc2-c2ccccc2)cc1
inactive: SK-OV-3 > 100 µM | SF-268 > 100 µM | SK-MEL-28 > 100 µM | IGROV-1 > 100 µM | OVCAR-8 > 100 µM | HOP-62 > 100 µM | UO-31 > 100 µM | EKVX 55.5 µM | SN12C > 100 µM | MOLT-4 66.4 µM | HCT-116 > 100 µM | Malme-3M > 100 µM | K562 60.8 µM | OVCAR-3 > 100 µM | SR 92.3 µM | BT-549 > 100 µM | CAKI-1 > 100 µM | HOP-92 > 100 µM
> 100 µM: HCT-15

CC(C)(C)C1CCC2c3c([nH]c4ccccc34)C3C(=O)N(c4ccc([N+](=O)[O-])cc4)C(=O)C3C2C1 (centres undefined)
inactive: SK-OV-3 35.1 µM | SF-268 7.36 µM | SK-MEL-28 96.6 µM | IGROV-1 11.5 µM | OVCAR-8 19 µM | HOP-62 16.4 µM | EKVX 25.3 µM | SN12C 4.86 µM | MOLT-4 5.28 µM | HCT-116 8.09 µM | Malme-3M 20.5 µM | K562 5.96 µM | OVCAR-3 10.7 µM | SR 3.27 µM | BT-549 16.2 µM | HOP-92 2.7 µM
18.1 µM: HCT-15

CC1=NN(C(=O)CC(=O)Nc2cccc(Cl)c2)C(=O)C1/N=N\c1ccc(S(=O)(=O)c2ccc(/N=N/C3C(=O)N(C(=O)CC(=O)Nc4cccc(Cl)c4)N=C3C)cc2)cc1 (centres undefined)
> 100 µM: HCT-15
inactive: SK-OV-3 > 100 µM | SF-268 > 100 µM | SK-MEL-28 > 100 µM | IGROV-1 > 100 µM | OVCAR-8 > 100 µM | HOP-62 > 100 µM | UO-31 > 100 µM | EKVX > 100 µM | SN12C > 100 µM | MOLT-4 > 100 µM | HCT-116 > 100 µM | Malme-3M > 100 µM | K562 > 100 µM | OVCAR-3 > 100 µM | SR > 100 µM | BT-549 > 100 µM | CAKI-1 > 100 µM | HOP-92 > 100 µM

COc1ccc(C2=NN(C(=N)S)C(c3ccccc3)C2)cc1 (centres undefined)
33.6 µM: HCT-15
inactive: SK-OV-3 46.6 µM | SF-268 43.6 µM | SK-MEL-28 91 µM | IGROV-1 48.4 µM | OVCAR-8 39.7 µM | HOP-62 38.2 µM | UO-31 43.4 µM | EKVX 35.9 µM | SN12C 39.3 µM | MOLT-4 28 µM | HCT-116 31.5 µM | Malme-3M 30.5 µM | K562 30.1 µM | OVCAR-3 35.6 µM | SR 23.2 µM | BT-549 38.2 µM | CAKI-1 40.6 µM | HOP-92 30.5 µM

C=C1CC[C@]2(C)[C@H](CC[C@@]34C[C@@H](CC[C@H]32)[C@@H](C(=O)O)C4)C1(C)C
> 12.5 µM: HCT-15
inactive: SK-OV-3 > 12.5 µM | SK-MEL-28 > 12.5 µM | IGROV-1 > 12.5 µM | OVCAR-8 > 12.5 µM | HOP-62 5.36 µM | UO-31 7.28 µM | EKVX > 12.5 µM | SN12C > 12.5 µM | MOLT-4 6.17 µM | HCT-116 > 12.5 µM | Malme-3M > 12.5 µM | K562 4.21 µM | OVCAR-3 > 12.5 µM | SR 6.37 µM | BT-549 > 12.5 µM | CAKI-1 > 12.5 µM | HOP-92 5.5 µM

COc1ccc(-c2c(C#N)c(N)n(C3OCC(OC(C)=O)C(OC(C)=O)C3OC(C)=O)c(=S)c2C#N)cc1 (centres undefined)
inactive: SK-OV-3 42.8 µM and 24 µM | SF-268 31.4 µM | SK-MEL-28 61.4 µM and 60.3 µM | IGROV-1 77.1 µM and 63.4 µM | OVCAR-8 39.3 µM and 21.8 µM | HOP-62 40.9 µM and 23.6 µM | UO-31 23.1 µM and 22 µM | EKVX 34.7 µM and 22.6 µM | SN12C 34.6 µM and 34.5 µM | MOLT-4 17.6 µM and 14.3 µM | HCT-116 41.1 µM and 52.2 µM | Malme-3M 44.9 µM and 37.5 µM | OVCAR-3 31.8 µM and 23.4 µM | SR 14.3 µM and 14 µM | BT-549 20.7 µM and 16.4 µM | CAKI-1 38.5 µM and 23.1 µM | HOP-92 16.4 µM and 11.8 µM
73.1 µM and 62.5 µM: HCT-15

c1cncc(C2(c3cc4ccccc4[nH]3)COCO2)c1 (centres undefined)
> 100 µM: HCT-15
inactive: SK-OV-3 > 100 µM | SF-268 > 100 µM | SK-MEL-28 > 100 µM | IGROV-1 > 100 µM | OVCAR-8 > 100 µM | HOP-62 > 100 µM | UO-31 58.3 µM | EKVX > 100 µM | MOLT-4 97.9 µM | HCT-116 71 µM | Malme-3M > 100 µM | K562 > 100 µM | OVCAR-3 > 100 µM | SR > 100 µM | BT-549 > 100 µM | CAKI-1 > 100 µM | HOP-92 > 100 µM

CCc1c(Cc2cccc3ccccc23)n2c(nc1=O)SCC2OCCO (centres undefined)
inactive: SF-268 55.7 µM | SK-MEL-28 > 100 µM | IGROV-1 24.7 µM | OVCAR-8 33.1 µM | UO-31 > 100 µM | EKVX 33.7 µM | SN12C > 100 µM | MOLT-4 26.6 µM | HCT-116 > 100 µM | Malme-3M > 100 µM | K562 30.4 µM | SR 25.9 µM | BT-549 41.7 µM | CAKI-1 > 100 µM
active: HOP-92 0.328 µM
43.5 µM: HCT-15

CCCCCCCCCCCC1=C(O)C(=O)C(CC2=C(O)C(=O)C(CCCCCCCCCCC)=C(O)C2=O)=C(O)C1=O
inactive: SK-OV-3 50.9 µM | SF-268 26.5 µM | SK-MEL-28 > 100 µM | IGROV-1 > 100 µM | OVCAR-8 29.8 µM | UO-31 > 100 µM | EKVX > 100 µM | SN12C > 100 µM | MOLT-4 > 100 µM | HCT-116 > 100 µM | Malme-3M 44 µM | K562 49.8 µM | SR 19.2 µM | BT-549 > 100 µM | CAKI-1 60.5 µM | HOP-92 16.3 µM
> 100 µM: HCT-15

CCN(CC)CCC(=O)c1ccc(Oc2ccc(C)cc2)cc1
inactive: SK-OV-3 28.4 µM | SF-268 18.8 µM | SK-MEL-28 16.9 µM | IGROV-1 20.1 µM | OVCAR-8 19.8 µM | HOP-62 19.1 µM | EKVX 20 µM | SN12C 16.7 µM | MOLT-4 21.6 µM | HCT-116 17.3 µM | Malme-3M 17.5 µM | K562 30.5 µM | OVCAR-3 17.6 µM | SR 26.2 µM | BT-549 18 µM | CAKI-1 17.3 µM | HOP-92 23.7 µM
18.7 µM: HCT-15

Fc1ccc(C(OCCN2CCC3CCC(C2)N3C/C=C/c2ccco2)c2ccc(F)cc2)cc1 (centres undefined)
5.09 µM: HCT-15
inactive: SK-OV-3 14.6 µM | SF-268 12.5 µM | SK-MEL-28 6.46 µM | IGROV-1 6.5 µM | OVCAR-8 5.83 µM | HOP-62 16.2 µM | UO-31 15.1 µM | SN12C 11.4 µM | MOLT-4 4.78 µM | HCT-116 4.91 µM | Malme-3M 9.57 µM | K562 3.21 µM | OVCAR-3 11.4 µM | SR 2.47 µM | BT-549 12.8 µM | CAKI-1 12.8 µM | HOP-92 4.62 µM

COc1ccc(CNC(=O)[C@@H]2CCCN2C(=O)[C@@H](C)N(C)C(=O)[C@H](C(C)C)N(C)C(=O)[C@@H](NC(=O)[C@H](C(C)C)N(Cc2ccccc2)Cc2ccccc2)C(C)C)c(OC)c1 (Bn2Val-V[NMeV][dNMeA]P-X32)
active: K562 0.0706 µM
inactive: SK-OV-3 10.7 µM | SF-268 3.71 µM | SK-MEL-28 3.29 µM | IGROV-1 3.4 µM | OVCAR-8 6.41 µM | HOP-62 4.91 µM | UO-31 3.86 µM | EKVX 2.69 µM | SN12C 1.78 µM | HCT-116 3.13 µM | Malme-3M 5.12 µM | OVCAR-3 3.63 µM | SR 2.15 µM | BT-549 2.56 µM | CAKI-1 4.04 µM | HOP-92 2.74 µM
3.05 µM: HCT-15

CS(=O)(=O)Nc1ccc2c(c1)N(S(C)(=O)=O)CC2COS(C)(=O)=O (centres undefined)
> 100 µM: HCT-15
inactive: SF-268 > 10 µM | SK-MEL-28 > 100 µM | IGROV-1 > 100 µM | OVCAR-8 94.4 µM | HOP-62 31.1 µM | UO-31 > 100 µM | EKVX > 100 µM | SN12C > 100 µM | MOLT-4 32.5 µM | HCT-116 54.6 µM | Malme-3M 39.9 µM | K562 52.4 µM | OVCAR-3 34.6 µM | SR 23.3 µM | BT-549 50.4 µM | CAKI-1 24.6 µM | HOP-92 33.2 µM

CC(=O)c1c(O)cc(O)c(-c2c(C)cc(O)c3c2C(=O)c2cccc(O)c2C3=O)c1O
inactive: SK-OV-3 13.1 µM | SF-268 15.1 µM | SK-MEL-28 20.7 µM | IGROV-1 11.6 µM | OVCAR-8 14.7 µM | HOP-62 14.9 µM | UO-31 14.5 µM | EKVX 16.1 µM | SN12C 19.1 µM | MOLT-4 10.8 µM | HCT-116 15.4 µM | Malme-3M 11.9 µM | K562 19.4 µM | OVCAR-3 17.6 µM | SR 16.3 µM | BT-549 17.5 µM | HOP-92 11.8 µM
14.1 µM: HCT-15
